In general, IC50 refers to the midpoint of a concentration-inhibition curve.

The text below walks through data of article PMC10413337 (RSC Advances, 2023).

The structures appear in SMILES notation.

For series [1], the system named is hepatic carcinoma HepG-2. As to the kind of experiment: MTT cytotoxicity evaluation, HepG-2. It counts as cell-based. The settings on record: Homo sapiens, HepG2, read-out: IC50 (μM ± SD) HepG-2.
For series [2], the system named is colon carcinoma Caco2. As to the kind of experiment: MTT cytotoxicity evaluation, Caco2. The settings on record: Homo sapiens, Caco-2, read-out: IC50 (μM ± SD) Caco2. It counts as cell-based.
In series [3] the test system is normal lung fibroblast WI-38. Description: MTT cytotoxicity evaluation, normal WI-38. Conditions: Homo sapiens, WI-38, read-out: IC50 (μM ± SD) WI-38. It counts as cell-based.
Series [4] relates to breast MCF-7. As to the kind of experiment: MTT cytotoxicity evaluation, MCF-7. Conditions: for IC50: Homo sapiens, MCF7, read-out: IC50 (μM ± SD) MCF-7.
Series [5] relates to HepG-2, Caco2, and MCF-7. Description: MTT cytotoxicity, statements over the three cancer cell lines. It counts as cell-based, human. The settings on record: 9c versus 3.

As for `CC(=O)c1nn(-c2ccc(S(N)(=O)=O)cc2)c(=N)s1` [Compound 1, 5-acetyl-3-N-(4-sulfamoylphenyl)-2-imino-1,3,4-thiadiazoline], the IC50 in series [1] was found to be 59.6 ± 3.4 µM; in series [2], 11.1 ± 0.6 µM; in series [3] it was 91.5 ± 4.7 µM; in series [4], 14.9 ± 0.7 µM.

`CC(=NNC(N)=S)c1nn(-c2ccc(S(N)(=O)=O)cc2)c(=N)s1` [Compound 3, 2-(1-(5-imino-4-(4-sulfamoylphenyl)-4,5-dihydro-1,3,4-thiadiazol-2-yl)ethylidene)hydrazine-1-carbothioamide]: the 50% inhibitory concentration (IC50) in series [1] turned out to be 4.57 ± 0.3 µM; in series [2] it was 14.9 ± 0.7 µM; in series [3], 44.4 ± 2.3 µM; in series [4], 6.38 ± 0.3 µM. The “improvement of the cytotoxic effect, times” value in series [4] (thiosemicarbazone 3 versus acetyl derivative 1, MCF-7) stood at 2.5 times.

`CC(=NNc1nc(-c2ccccc2)cs1)c1nn(-c2ccc(S(N)(=O)=O)cc2)c(=N)s1` [Compound 4, 4-(2-Imino-5-(1-(2-(4-phenylthiazol-2-yl)hydrazineylidene)ethyl)-1,3,4-thiadiazol-3(2H)yl)benzenesulfonamide]: the IC50 worked out at 0.5 ± 0.04 µM in series [1], 3.19 ± 0.2 µM in series [2], 21.4 ± 1.1 µM in series [3] and 3.52 ± 0.2 µM in series [4].

In the case of `CC(=O)c1sc(NN=C(C)c2nn(-c3ccc(S(N)(=O)=O)cc3)c(=N)s2)nc1C` [Compound 6, 4-(5-(1-(2-(5-Acetyl-4-methylthiazol-2-yl)hydrazineylidene)ethyl)-2-imino-1,3,4-thiadiazol-3(2H)-yl)benzenesulfonamide], the IC50 is 32.9 ± 1.9 µM in series [1], 33.8 ± 1.7 µM in series [2], 110 ± 5.7 µM in series [3] and 21.2 ± 1.2 µM in series [4].

As to `CCOC(=O)c1sc(NN=C(C)c2nn(-c3ccc(S(N)(=O)=O)cc3)c(=N)s2)nc1C` [Compound 7, Ethyl-2-(2-(1-(5-imino-4-(4-sulfamoylphenyl)-4,5-dihydro-1,3,4-thiadiazol-2-yl)ethylidene)hydrazineyl)-4-methylthiazole-5-carboxylate], the IC50 in series [1] worked out at 19.6 ± 1.1 µM; in series [2], 7.39 ± 0.4 µM; in series [3] it was 42.9 ± 2.2 µM; in series [4], 12.6 ± 0.6 µM.

For `CC(=NNC1=NC(=O)CS1)c1nn(-c2ccc(S(N)(=O)=O)cc2)c(=N)s1` [Compound 8, 4-(2-Imino-5-(1-(2-(4-oxo-4,5-dihydrothiazol-2-yl)hydrazineylidene)ethyl)-1,3,4-thiadiazol-3(2H)-yl)benzenesulfonamide], the half-maximal inhibitory concentration (IC50) in series [1] was found to be 11.3 ± 0.6 µM; in series [2], 5.31 ± 0.3 µM; in series [3], 22.9 ± 1.2 µM; in series [4] it was 27.2 ± 1.2 µM.

Regarding `CNC(=S)NN=C(C)c1nn(-c2ccc(S(N)(=O)=O)cc2)c(=N)s1` [Compound 9a, 2-(1-(5-Imino-4-(4-sulfamoylphenyl)-4,5-dihydro-1,3,4-thiadiazol-2-yl)ethylidene)-N-methylhydrazine-1-carbothioamide], the IC50 in series [1] came to 0.53 ± 0.01 µM; in series [2], 1.01 ± 0.1 µM; in series [3], 18.4 ± 1.7 µM; in series [4] it was 1.12 ± 0.1 µM.

With `C=CCNC(=S)NN=C(C)c1nn(-c2ccc(S(N)(=O)=O)cc2)c(=N)s1` [Compound 9b, N-Allyl-2-(1-(5-imino-4-(4-sulfamoylphenyl)-4,5-di-hydro-1,3,4-thiadiazol-2-yl)ethylidene)hydrazine-1-carbothioamide], the IC50 was found to be 149 ± 8.4 µM in series [1], 74.8 ± 3.7 µM in series [2], 92.9 ± 4.8 µM in series [3] and 73 ± 3.3 µM in series [4].

As for `CC(=NNC(=S)Nc1ccccc1)c1nn(-c2ccc(S(N)(=O)=O)cc2)c(=N)s1` [Compound 9c, 2-(1-(5-imino-4-(4-sulfamoylphenyl)-4,5-di-hydro-1,3,4-thiadiazol-2-yl)ethylidene)-N-phenylhydrazine-1-carbothioamide], the IC50 in series [1] is 37.1 ± 2.1 µM; in series [2] it was 34.7 ± 1.7 µM; in series [3], 28.5 ± 1.5 µM; in series [4] it was 21.1 ± 0.9 µM. Besides, the “drop in cytotoxicity, times” value in series [5] amounted to 10 times.

Turning to `CC(=NNC(=S)Nc1ccc(Cl)cc1)c1nn(-c2ccc(S(N)(=O)=O)cc2)c(=N)s1` [Compound 9d, N-(4-Chlorophenyl)-2-(1-(5-imino-4-(4-sulfamoylphenyl)-4,5-dihydro-1,3,4-thiadiazol-2-yl)-ethylidene)hydrazine-1-carbothioamide], the IC50 in series [1] is 153 ± 8.6 µM; in series [2] it was 98.7 ± 4.9 µM; in series [3], 60.7 ± 3.1 µM; in series [4] it was 42.6 ± 1.8 µM.

On to `C=CCn1c(-c2ccccc2)csc1=NN=C(C)c1nn(-c2ccc(S(N)(=O)=O)cc2)c(=N)s1` [Compound 12b, 4-(5-(1-((3-Allyl-4-phenylthiazol-2(3H)-ylidene)hydrazono)ethyl)-2-imino-1,3,4-thiadiazol-3(2H)-yl)benzenesulfonamide], for which the IC50 in series [1] turned out to be 17.5 ± 1.5 µM; in series [2], 25.5 ± 1.3 µM; in series [3], 63.5 ± 3.9 µM; in series [4], 15.1 ± 0.7 µM.

As to `CC(=NN=c1scc(-c2ccccc2)n1-c1ccc(Cl)cc1)c1nn(-c2ccc(S(N)(=O)=O)cc2)c(=N)s1` [Compound 12d, 4-(5-(1-((3-(4-Chlorophenyl)-4-phenylthiazol-2(3H)-ylidene)hydrazono)ethyl)-2-imino-1,3,4-thiadiazol-3(2H)-yl)benzenesulfonamide], the IC50 in series [1] amounted to 4.26 ± 0.2 µM; in series [2] it was 1.06 ± 0.1 µM; in series [3] it was 46.6 ± 2.4 µM; in series [4], 3.79 ± 0.2 µM.
